Assay results from patent US4540517A, “Antibiotic TAN-420” (Takeda Chemical Industries, Ltd., priority 1982, dated 1985).
≈ marks a conversion by molar mass, not a printed value. Like-named read-outs stand apart in the source and are kept apart here.

Experiments:
[1] = system: gram-positive bacteria, fungi and protozoae; test: Antimicrobial activity (general statement); details: considered, relative to TAN-420B
Tetrahymena pyriformis W = test: Liquid dilution assay of antiprotozoal activity; type: cell-based; details: read-out: minimal inhibitory concentration
[2] = system: Pseudomonas aeruginosa IFO 3080; test: Agar dilution assay, antimicrobial activity; type: cell-based
Experimental: (§1) The antimicrobial activity of Antibiotic TAN-420B, C, D and E was assayed by the agar dilution method using Typticase soy agar (Baltimore Biological Laboratories, U.S.A.) as the test medium.

[3] = system: Staphylococcus aureus FDA 209P; test: Agar dilution assay, antimicrobial activity; type: cell-based; details: FDA209P, read-out: Minimal inhibitory concentration
Experimental: as §1

[4] = system: Bacillus subtilis PCI 219; test: Agar dilution assay, antimicrobial activity; type: cell-based
Experimental: as §1

B. pumilus IFO 3813 = test: Agar dilution assay, antimicrobial activity; type: cell-based; details: Bacillus pumilus
Experimental: as §1

B. cereus IFO 3514 = test: Agar dilution assay, antimicrobial activity; type: cell-based; details: Bacillus cereus
Experimental: as §1

B. brevis IFO 3331 = test: Agar dilution assay, antimicrobial activity; type: cell-based; details: Brevibacillus brevis
Experimental: as §1

B. megaterium IFO 12108 = test: Agar dilution assay, antimicrobial activity; type: cell-based; details: Priestia megaterium
Experimental: as §1

Escherichia coli K12 = test: Agar dilution assay, antimicrobial activity; type: cell-based
Experimental: as §1

[5] = system: Micrococcus flavus IFO 3242; test: Agar dilution assay, antimicrobial activity; type: cell-based
Experimental: as §1

[6] = Toxicity compared with herbimycin A; details: comparison in words
[7] = Acute toxicity (mouse, intraperitoneal); details: in vivo, ip
Experimental: As regards the acute toxocity of Antibiotic TAN-420 (mouse, intraperitoneal), the LD50 value of TAN-420C was 200 to 400 mg/kg, that of TAN-420D was 100 mg/kg, and that of TAN-420E was 50 mg/kg. It is therefore, considered that the toxicity of Antibiotic TAN-420 is low.

[8] = known from Journal of Antibiotics 32, 255-261 (1979), Tetrahedron Letters No. 44, 4323-4326 (1979); cited from earlier work
[9] = liquid dilution assay, Tetrahymena pyriformis W
[10] = IFO3080, agar dilution, Pseudomonas aeruginosa IFO 3080, read-out: Minimal inhibitory concentration
[11] = agar dilution, Staphylococcus aureus FDA 209P
[12] = PCI219, agar dilution, Bacillus subtilis PCI 219, read-out: Minimal inhibitory concentration
[13] = IFO3813, agar dilution, B. pumilus IFO 3813, read-out: Minimal inhibitory concentration
[14] = IFO3514, agar dilution, B. cereus IFO 3514, read-out: Minimal inhibitory concentration
[15] = IFO3331, agar dilution, B. brevis IFO 3331, read-out: Minimal inhibitory concentration
[16] = IFO12108, agar dilution, B. megaterium IFO 12108, read-out: Minimal inhibitory concentration
[17] = agar dilution, Escherichia coli K12, read-out: Minimal inhibitory concentration
[18] = IFO3242, agar dilution, Micrococcus flavus IFO 3242, read-out: Minimal inhibitory concentration

SMILES	MIC (Tetrahymena pyriformis W; [9]) [µg/mL]	toxicity relative to herbimycin A [6]	MIC [2, 10] [µg/mL]	MIC [3, 11] [µg/mL]	MIC [4, 12] [µg/mL]	MIC (B. pumilus IFO 3813; [13]) [µg/mL]	MIC (B. cereus IFO 3514; [14]) [µg/mL]	MIC (B. brevis IFO 3331; [15]) [µg/mL]	MIC (B. megaterium IFO 12108; [16]) [µg/mL]	MIC (Escherichia coli K12; [17]) [µg/mL]	MIC [5, 18] [µg/mL]	LD50 [7] [mg/kg]	further results
COC1C=CC=C(C)C(=O)Nc2cc(O)cc(c2O)C(OC)C(C)CC(O)C(O)C(C)C=C(C)C1OC(N)=O (stereo not drawn) [TAN-420A]													antimicrobial activity [1]: of the same order as that of TAN-420B
COC1C=CC=C(C)C(=O)NC2=CC(=O)C=C(C2=O)C(OC)C(C)CC(O)C(O)C(C)C=C(C)C1OC(N)=O (stereo not drawn) [TAN-420B]													MIC (Tetrahymena pyriformis W; Tetrahymena pyriformis): 40 µg/mL (≈ 73.2 µM); MIC ([2]; Pseudomonas aeruginosa, IFO3080, read-out: Minimal inhibitory concentration): > 100 µg/mL; MIC ([3]; Staphylococcus aureus): 100 µg/mL (≈ 183 µM); MIC ([4]; Bacillus subtilis, PCI219, read-out: Minimal inhibitory concentration): > 100 µg/mL; MIC (B. pumilus IFO 3813; IFO3813, read-out: Minimal inhibitory concentration): 100 µg/mL (≈ 183 µM); MIC (B. cereus IFO 3514; IFO3514, read-out: Minimal inhibitory concentration): 100 µg/mL (≈ 183 µM); MIC (B. brevis IFO 3331; IFO3331, read-out: Minimal inhibitory concentration): 50 µg/mL (≈ 91.5 µM); MIC (B. megaterium IFO 12108; IFO12108, read-out: Minimal inhibitory concentration): 100 µg/mL (≈ 183 µM); MIC (Escherichia coli K12; Escherichia coli, K12, read-out: Minimal inhibitory concentration): > 100 µg/mL; MIC ([5]; Micrococcus flavus, IFO3242, read-out: Minimal inhibitory concentration): 25 µg/mL (≈ 45.7 µM)
COC1C=CC=C(C)C(=O)Nc2cc(O)cc(c2O)C(OC)C(C)CC(OC)C(O)C(C)C=C(C)C1OC(N)=O (stereo not drawn) [TAN-420C]	10 (≈ 17.8 µM)	lower than that of herbimycin A	> 100	100 (≈ 178 µM)	> 100	100 (≈ 178 µM)	100 (≈ 178 µM)	50 (≈ 88.9 µM)	100 (≈ 178 µM)	> 100	25 (≈ 44.4 µM)	200 to 400	
COC1C=CC=C(C)C(=O)NC2=CC(=O)C=C(C2=O)C(OC)C(C)CC(OC)C(O)C(C)C=C(C)C1OC(N)=O (stereo not drawn) [TAN-420D]	4 (≈ 7.13 µM)	lower than that of herbimycin A	> 100	100 (≈ 178 µM)	> 100	100 (≈ 178 µM)	100 (≈ 178 µM)	50 (≈ 89.2 µM)	100 (≈ 178 µM)	> 100	25 (≈ 44.6 µM)	100	
COC1C=CC=C(C)C(=O)Nc2cc(O)cc(c2O)C(OC)C(C)CC(OC)C(OC)C(C)C=C(C)C1OC(N)=O (stereo not drawn) [TAN-420E]	2 (≈ 3.47 µM)	lower than that of herbimycin A	> 100	100 (≈ 173 µM)	100 (≈ 173 µM)	100 (≈ 173 µM)	100 (≈ 173 µM)	50 (≈ 86.7 µM)	50 (≈ 86.7 µM)	> 100	50 (≈ 86.7 µM)	50	
COC1C=CC=C(C)C(=O)NC2=CC(=O)C=C(C2=O)C(OC)C(C)CC(OC)C(OC)C(C)C=C(C)C1OC(N)=O (stereo not drawn) [herbimycin A]													herbicidal activity [8]: has herbicidal activity
